Experimental data from patent publication US20250263408A1 (Uniquest Pty Ltd, priority 2022, published 2025).
pEC50: −log10 of the molar value.

Experiments:
Ba/F3-Syk cells = target: T1, Ba/F3-Syk cells (Homo sapiens, UniProt P43405); assay: Ba/F3 Proliferation Assay, Ba/F3-Syk cells (Resazurin); type: cell-based; conditions: 48-hour incubation
T1 construct: fused on or other part: Possible but unprinted fusion partner: TEL (ETV6), the usual partner for Ba/F3 lines transformed by Syk; Nothing on a partner is printed
Procedure: (§1) Ba/F3-Syk and Ba/F3-WT (wild type) cells were maintained at ≤1×10^6 cell/mL in RPMI (Life Technologies) with 10% FBS at 37° C. and 5% CO2 for a maximum of four weeks. Ba/F3-WT additionally contained 2 ng/mL mIL-3 (R&D Systems) to induce cellular growth. Cells were counted and dispensed at 5000 cells/well using a Multidrop Liquid Dispenser in a volume of 45 μL into black 384-well TC treated plates (Greiner) and incubated for four hours in complete media (+mIL-3 for Ba/F3-WT). Compounds were serially diluted in 100% DMSO, prior to an intermediate dilution in RPMI media. 5 μL of compound (0.4% final DMSO) was added to the cells, followed by a 48-hour incubation period. 5 μL of Resazurin (60 μM final) was then added and cells were incubated at 37° C. for three hours, before fluorescence (λex530/λem585) was measured using an Ensight Multimode Plate Reader (Perkin Elmer).

[1] = test system: Ba/F3-WT (wild type) cells; assay: Ba/F3 Proliferation Assay, Ba/F3-WT (wild type) cells with mIL-3 (Resazurin); type: cell-based; conditions: Ba/F3-WT cells +mIL-3, 48-hour incubation
Procedure: as §1

| SMILES | pEC50 (Ba/F3-Syk cells) | pEC50 [1] | pEC50 ([1]; Mus musculus, BaF3, 48 h) |
| --- | --- | --- | --- |
| CC(C)(C)n1cc(-c2cc3ncccc3c(OC[C@H]3OC[C@@H]4C[C@H]3N4)n2)cn1 (relative stereo) [Compound 2.97, 7-(1-tert-butyl-1H-pyrazol-4-yl)-5-{[rel-(1R,2S,5S)-3-oxa-6-azabicyclo[3.1.1]heptan-2-yl]methoxy}-1,6-naphthyridine] | 6.46 | 5.37 | – |
| CC(C)(C)n1cc(-c2cc3ncccc3c(OC[C@H]3O[C@H]4CCN[C@@H]3C4)n2)cn1 (single isomer, unassigned) [Compound 13.11] | 5.71 | – | < 5.00 |
| CC(C)(C)n1cc(-c2cc3ncccc3c(OC[C@H]3O[C@H]4CCN[C@@H]3C4)n2)cn1 (single isomer, unassigned) [Compound 13.12] | 7.13 | < 5.30 | – |
| CC(C)(C)n1cc(-c2cc3ncccc3c(OC[C@H]3CN[C@@H]4CCC[C@@H]4O3)n2)cn1 (stereo in doubt) [Compound 2.95, 5-{[(2R,4aR,7aS)-octahydrocyclopenta[b][1,4]oxazin-2-yl]methoxy}-7-(1-tert-butyl-1H-pyrazol-4-yl)-1,6-naphthyridine] | 7.66 | – | 5.73 |
| Cc1ccnc2cc(-c3cnn(C(C)C)c3)cc(OC[C@@H]3CNCC(C)(C)O3)c12 (stereo in doubt) [Compound 14.7, 5-[(6,6-dimethylmorpholin-2-yl)methoxy]-4-methyl-7-[1-(propan-2-yl)-1H-pyrazol-4-yl]quinoline] | 8.62 | – | 6.03 |
| C=Cc1cnc2cc(-c3cnn(C(C)(C)C)c3)nc(OC[C@@H]3CNCC(C)(C)O3)c2c1 (stereo in doubt) [Compound 14.8, 7-(1-tert-butyl-1H-pyrazol-4-yl)-5-[(6,6-dimethylmorpholin-2-yl)methoxy]-3-ethenyl-1,6-naphthyridine] | 5.93 | – | < 5.00 |
| CC(C)(C)n1cc(-c2cc(OC[C@@H]3CNCCO3)c3cccnc3c2)cn1 [Compound 1, 7-(1-tert-butyl-1H-pyrazol-4-yl)-5-{[(2S)-morpholin-2-yl]methoxy}quinoline] | 7.35 | – | 5.33 |
| Cn1cc(-c2cc(OC[C@@H]3CNCCO3)c3cccnc3c2)cn1 [Compound 2, 7-(1-methyl-1H-pyrazol-4-yl)-5-{[(2S)-morpholin-2-yl]methoxy}quinoline] | 6.78 | – | 5.61 |
| Cc1noc(C)c1-c1cc2ncccc2c(OC[C@@H]2CNCCO2)n1 [Compound 2.14, 7-(3,5-dimethyl-1,2-oxazol-4-yl)-5-{[(2S)-morpholin-2-yl]methoxy}-1,6-naphthyridine] | 5.44 | – | 5.32 |
| c1cnc2cc(-c3ccn[nH]3)nc(OC[C@@H]3CNCCO3)c2c1 [Compound 2.28, 5-{[(2S)-morpholin-2-yl]methoxy}-7-(1H-pyrazol-5-yl)-1,6-naphthyridine] | 6.13 | – | < 5.00 |
| c1cnc2cc(-c3cncs3)nc(OC[C@@H]3CNCCO3)c2c1 [Compound 2.29, 5-{[(2S)-morpholin-2-yl]methoxy}-7-(1,3-thiazol-5-yl)-1,6-naphthyridine] | 5.99 | – | < 5.00 |
| Cc1ncc(-c2cc3ncccc3c(OC[C@@H]3CNCCO3)n2)s1 [Compound 2.30, 7-(2-methyl-1,3-thiazol-5-yl)-5-{[(2S)-morpholin-2-yl]methoxy}-1,6-naphthyridine] | 6.69 | – | 5.16 |
| Cn1ccc(-c2cc3ncccc3c(OC[C@@H]3CNCCO3)n2)n1 [Compound 2.31, 7-(1-methyl-1H-pyrazol-3-yl)-5-{[(2S)-morpholin-2-yl]methoxy}-1,6-naphthyridine] | 5.76 | – | < 5.00 |
| Clc1ccc(-c2cc3ncccc3c(OC[C@@H]3CNCCO3)n2)s1 [Compound 2.33, 7-(5-chlorothiophen-2-yl)-5-{[(2S)-morpholin-2-yl]methoxy}-1,6-naphthyridine] | 6.41 | – | 5.80 |
| Clc1csc(-c2cc3ncccc3c(OC[C@@H]3CNCCO3)n2)c1 [Compound 2.34, 7-(4-chlorothiophen-2-yl)-5-{[(2S)-morpholin-2-yl]methoxy}-1,6-naphthyridine] | 6.40 | – | 5.81 |
| Cc1cc(-c2cc3ncccc3c(OC[C@@H]3CNCCO3)n2)sc1Cl [Compound 2.35, 7-(5-chloro-4-methylthiophen-2-yl)-5-{[(2S)-morpholin-2-yl]methoxy}-1,6-naphthyridine] | 6.18 | – | 6.21 |
| CCc1ccc(-c2cc3ncccc3c(OC[C@@H]3CNCCO3)n2)s1 [Compound 2.36, 7-(5-ethylthiophen-2-yl)-5-{[(2S)-morpholin-2-yl]methoxy}-1,6-naphthyridine] | 6.55 | – | 5.69 |

| SMILES | pEC50 (Ba/F3-Syk cells) | pEC50 [1] | pEC50 ([1]; Mus musculus, BaF3, 48 h) |
| --- | --- | --- | --- |
| Cc1cc(-c2cc3ncccc3c(OC[C@@H]3CNCCO3)n2)c(C)s1 [Compound 2.37, 7-(2,5-dimethylthiophen-3-yl)-5-{[(2S)-morpholin-2-yl]methoxy}-1,6-naphthyridine] | 5.91 | – | 5.55 |
| Cn1cccc1-c1cc2ncccc2c(OC[C@@H]2CNCCO2)n1 [Compound 2.38, 7-(1-methyl-1H-pyrrol-2-yl)-5-{[(2S)-morpholin-2-yl]methoxy}-1,6-naphthyridine] | 5.84 | – | < 5.00 |
| Clc1cc(-c2cc3ncccc3c(OC[C@@H]3CNCCO3)n2)cs1 [Compound 2.39, 7-(5-chlorothiophen-3-yl)-5-{[(2S)-morpholin-2-yl]methoxy}-1,6-naphthyridine] | 6.61 | – | 5.77 |
| Cc1cc(-c2cc3ncccc3c(OC[C@@H]3CNCCO3)n2)c(C)n1C [Compound 2.40, 5-{[(2S)-morpholin-2-yl]methoxy}-7-(1,2,5-trimethyl-1H-pyrrol-3-yl)-1,6-naphthyridine] | 6.19 | – | < 5.00 |
| Cn1cc(-c2cc3ncccc3c(OCC3CNCCCO3)n2)cn1 (stereo not drawn) [Compound 2.41, 7-(1-methyl-1H-pyrazol-4-yl)-5-[(1,4-oxazepan-2-yl)methoxy]-1,6-naphthyridine] | 6.90 | – | 5.63 |
| CC(C)(C)n1cc(-c2cc3ncccc3c(OCC3CNCCCO3)n2)cn1 (stereo not drawn) [Compound 2.47, 7-(1-tert-butyl-1H-pyrazol-4-yl)-5-[(1,4-oxazepan-2-yl)methoxy]-1,6-naphthyridine] | 7.32 | – | 5.49 |
| Cn1ccc(-c2cc3ncccc3c(OCC3CNCCCO3)n2)c1 (stereo not drawn) [Compound 2.48, 7-(1-methyl-1H-pyrrol-3-yl)-5-[(1,4-oxazepan-2-yl)methoxy]-1,6-naphthyridine] | 6.92 | – | 5.39 |
| Cn1cc(-c2cc3ncccc3c(OC[C@@H]3CNCCCO3)n2)cn1 [Compound 2.50, 7-(1-methyl-1H-pyrazol-4-yl)-5-{[(2S)-1,4-oxazepan-2-yl]methoxy}-1,6-naphthyridine] | 6.82 | – | 5.21 |
| CC(C)n1cc(-c2cc3ncccc3c(OC[C@@H]3CNCC4(CCC4)O3)n2)cn1 [Compound 2.56, 5-{[(6S)-5-oxa-8-azaspiro[3.5]nonan-6-yl]methoxy}-7-[1-(propan-2-yl)-1H-pyrazol-4-yl]-1,6-naphthyridine] | 7.48 | – | 5.84 |
| CC(C)(C)n1cc(-c2cc3ncccc3c(OC[C@H]3CNCCCO3)n2)cn1 [Compound 2.59, 7-(1-tert-butyl-1H-pyrazol-4-yl)-5-{[(2R)-1,4-oxazepan-2-yl]methoxy}-1,6-naphthyridine] | 7.23 | – | 6.01 |
| CC(C)(C)n1ccc(-c2cc3ncccc3c(OC[C@@H]3CNCC4(CC4)O3)n2)c1 [Compound 2.61, 7-(1-tert-butyl-1H-pyrrol-3-yl)-5-{[(5S)-4-oxa-7-azaspiro[2.5]octan-5-yl]methoxy}-1,6-naphthyridine] | 8.01 | – | 5.58 |
| CC(C)n1cc(-c2cc3ncccc3c(OC[C@@H]3CNCC4(CC4)O3)n2)cn1 [Compound 2.62, 5-{[(5S)-4-oxa-7-azaspiro[2.5]octan-5-yl]methoxy}-7-[1-(propan-2-yl)-1H-pyrazol-4-yl]-1,6-naphthyridine] | 7.50 | – | 5.89 |
| C[C@H](Oc1nc(-c2ccn(C)c2)cc2ncccc12)[C@@H]1CNCC(C)(C)O1 [Compound 2.64, 5-[(1S)-1-[(2S)-6,6-dimethylmorpholin-2-yl]ethoxy]-7-(1-methyl-1H-pyrrol-3-yl)-1,6-naphthyridine] | 6.60 | – | < 5.00 |
| C[C@@H](Oc1nc(-c2ccn(C)c2)cc2ncccc12)[C@@H]1CNCC(C)(C)O1 [Compound 2.65, 5-[(1R)-1-[(2S)-6,6-dimethylmorpholin-2-yl]ethoxy]-7-(1-methyl-1H-pyrrol-3-yl)-1,6-naphthyridine] | 7.93 | – | 5.60 |
| C[C@@H](Oc1nc(-c2ccn(C(C)(C)C)c2)cc2ncccc12)[C@@H]1CNCCO1 [Compound 2.68, 7-(1-tert-butyl-1H-pyrrol-3-yl)-5-[(1R)-1-[(2S)-morpholin-2-yl]ethoxy]-1,6-naphthyridine] | 7.86 | – | 5.36 |
| CC(C)n1cc(-c2cc3ncccc3c(OC[C@@H]3CNCCCO3)n2)cn1 [Compound 2.70, 5-{[(2S)-1,4-oxazepan-2-yl]methoxy}-7-[1-(propan-2-yl)-1H-pyrazol-4-yl]-1,6-naphthyridine] | 7.72 | – | 5.81 |
